Reference: US9321770B2, “Crystals of pyrroloquinolinequinone sodium salts” (MITSUBISHI GAS CHEMICAL COMPANY, INC., priority 2009, dated 2016)
Counter-ions that a name gives are not always drawn.

Test: Thermal analysis: thermogravimetry (TG) and differential thermal analysis (DSC)
Type: physicochemical
Details: under air flow; for thermal stability of the solids (thermal analysis): temperature increased at 10° C./minute
Protocol: The obtained solids were subjected to thermogravimetry (TG) and differential thermal analysis (DSC) using Thermo plus EVO TG8120 manufactured by Rigaku Corporation. The temperature was increased under air flow at a rate of 10° C./minute.

Row | SMILES | thermal stability of the solids (thermal analysis) (trisodium salt) | temperature from which reduction in the weight was observed (10° C./minute) | thermal stability of the solids (thermal analysis) (disodium salt) | temperature up to which there was no change (except evaporation of water at about 100° C.) (10° C./minute) [°C]
1 | O=C(O)c1cc(C(=O)O)c2c(n1)C(=O)C(=O)c1cc(C(=O)O)[nH]c1-2 [Example 4, pyrroloquinoline quinone trisodium salt] | very high thermal stability | – | – | –
2 | O=C(O)c1cc(C(=O)O)c2c(n1)C(=O)C(=O)c1cc(C(=O)O)[nH]c1-2 [Comparative Example 1, PQQ disodium salt] | – | about 30 °C | unstable | –
3 | O=C(O)c1cc(C(=O)O)c2c(n1)C(=O)C(=O)c1cc(C(=O)O)[nH]c1-2 [Example 2, pyrroloquinoline quinone disodium salt] | – | – | very stable | 270
4 | O=C(O)c1cc(C(=O)O)c2c(n1)C(=O)C(=O)c1cc(C(=O)O)[nH]c1-2 [Comparative Example 2, PQQ disodium salt] | – | – | low thermal stability | –
